PMC10303687 (Protein Science : A Publication of the Protein Society, 2023)
“Also recorded” adds a separate entry of the source. Ends that are not written are not given here.

Tests used:
[1] = biological target: T1, MDM2 H. sapiens (SWIB domain) (Homo sapiens, UniProt Q00987); experiment: Stopped-flow binding kinetics (kon, koff; KD = koff/kon); details: 10°C; for koff: pre-formed complex 1 μM:1 μM displaced by 10–20 μM dansylated human p53TAD, pH 7.4, SD of two or three replicates; for kon: pH 7.4, MDM2 H. sapiens 0.5–2 μM mixed with 1–10 μM p53TAD, kobs vs concentration, pH 7.4, curve fitting error
T1 construct: The reconstructed MDM2 variants used in the present study correspond to residues 17–125 of human MDM2; N-terminal fusion: NusA-TEV-His6-PreScission (pSY10) or His6-GST-PreScission (pETM33); made in house; host or cells: Escherichia coli BL21 (DE3) pLys or BL21 (DE3)

[2] = biological target: T2, MDM2 D. rerio (SWIB domain) (Danio rerio, UniProt O42354); experiment: as above; details: for kon: MDM2 D. rerio 0.5–2 μM mixed with 1–10 μM peptide, curve fitting error; for kon / koff: pH 7.4; for koff: complex 1 μM:1 μM displaced by 10–20 μM dansylated human p53TAD, SD of two or three replicates
T2 construct: N-terminal fusion: NusA-TEV-His6-PreScission (pSY10) or His6-GST-PreScission (pETM33); made in house; host or cells: Escherichia coli BL21 (DE3) pLys or BL21 (DE3)

[3] = biological target: T2, MDM2 D. rerio (SWIB domain); experiment: Fluorescence polarization displacement of FITC-labeled human p53TAD 15–26 (IC50 to KD/Ki); assay type: binding; details: FP displacement; low constant FITC-labeled p53TADHuman and MDM2 D. rerio, displaced by excess peptide; room temperature, pH 7.4; KD calculated from IC50; mean ± SEM
Method: FP can detect weak affinities (K D values in the high μM range), although the accuracy is lower than for the other methods. In FP experiments we observed direct binding using a FITC‐labeled p53TAD peptide and used unlabeled peptides containing the binding motif to displace the labeled one. FP experiments were performed at room temperature using the same buffer as kinetic experiments. […] The polarization was measured at excitation/emission wavelengths of 485/535 nm on a SpectraMax iD5 plate reader. […] Errors were calculated as standard error of mean (SEM) of calculated K D values for the displacer peptides resulting from independent fit of IC50 values for the replicate measurements. […]
Supplementary Excel File 2. […] IC50 values were determined as described in the materials section. The theory behind the conversion of IC50 values to Ki values (=KD) is described in Nikolovska-Coleska, et al., Development and optimization of a binding assay for the XIAP BIR3 domain using fluorescence polarization. […]

[4] = biological target: MDM2 T. adhaerens (SWIB domain); experiment: as above; assay type: binding, Trichoplax adhaerens; details: FP displacement, FITC-labeled p53TAD H. sapiens 15–26 6 or 10 nM and MDM2 T. adhaerens 50 μM constant, dilution series of native p53TAD, room temperature, pH 7.4
Method: FP can detect weak affinities (K D values in the high μM range), although the accuracy is lower than for the other methods. In FP experiments we observed direct binding using a FITC‐labeled p53TAD peptide and used unlabeled peptides containing the binding motif to displace the labeled one. FP experiments were performed at room temperature using the same buffer as kinetic experiments. For saturation experiments the FITC labeled human peptide was held at a constant concentration of 6 or 10 nM and mixed with the 1:1 dilution series of different MDM2 proteins (the highest concentration of proteins were 89, 37, 50, 22, and 7.3 μM for T. adhaerens, M. trossulus, I. scapularis, L. camtschaticum and H. sapiens MDM2, respectively) in black, non‐binding surface, flat bottom 96‐well plates (Corning Life Sciences). The polarization was measured at excitation/emission wavelengths of 485/535 nm on a SpectraMax iD5 plate reader. […] The resulting displacement curve was fit to a sigmoidal dose‐response (variable slope) equation to obtain an IC50 value, which was in turn used to calculate K D values for the competing peptides as described previously(Nikolovska‐Coleska et al., [2004]) (Excel File 2 in Data S1). Errors were calculated as standard error of mean (SEM) of calculated K D values for the displacer peptides resulting from independent fit of IC50 values for the replicate measurements.
Supplementary Excel File 1. Sequences of constructs used in the experiments. The sequence and name for each interaction motif in p53TAD and MDM2 SWIB domain used in binding experiments in the study.
Supplementary Excel File 2. Calculation of Ki from IC50 values. IC50 values were determined as described in the materials section. The theory behind the conversion of IC50 values to Ki values (=KD) is described in Nikolovska-Coleska, et al., Development and optimization of a binding assay for the XIAP BIR3 domain using fluorescence polarization. […]
p53TAD. The posterior probability is shown for each amino acid for each position for the […]
Supplementary Text File 1. Fasta file for p53TAD. […]

T2 sequence (O42354 19-102 limits assumed): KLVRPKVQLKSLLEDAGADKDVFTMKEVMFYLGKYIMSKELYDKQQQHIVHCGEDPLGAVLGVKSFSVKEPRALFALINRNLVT
T1 sequence (Q00987 17-125): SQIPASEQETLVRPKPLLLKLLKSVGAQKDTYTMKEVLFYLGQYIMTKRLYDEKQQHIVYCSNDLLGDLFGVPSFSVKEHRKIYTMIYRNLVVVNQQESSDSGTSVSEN

kon [1] [M⁻¹ s⁻¹] | Substance | koff ([1]; MDM2 H. sapiens) [s⁻¹] | other results
2.73e+07 ± 700000 | Ac-SQESFSDLWNLL [p53TADFishes/Tetrapods ^AltAll] | 0.52 ± 0.04 | 
 | Ac-DSQEFAELWEKN (N-terminus assumed) [p53TAD D. rerio ^14–26] |  | K D ([2]; MDM2 D. rerio, KD = koff/kon, stopped-flow, 10°C, 20 mM sodium phosphate pH 7.4, 150 mM NaCl, 1 mM TCEP, propagated error): absence of interaction; also recorded: non‐measurable affinity
 | Ac-GQDVLNQLLEML [p63TAD D. rerio] |  | Kd [3]: 130 ± 2 µM
2.9e+07 ± 2e+06 | Ac-SQDTFSDLWNQL [p53TAD1R ^AltAll] | 0.7 ± 0.04 | 
3.8e+07 ± 2e+06 | Ac-SQETFSDLWNML [p53TADReptiles/Mammals ^AltAll] | 0.36 ± 0.01 | 
4.2e+07 ± 2e+06 | Ac-SQETFSDLWNLL [p53TADReptiles/Mammals ^ML] | 0.32 ± 0.04 | 
1.9e+07 ± 1e+06 | Ac-SQETFNHLWNTL [p53TADBilateria ^ML] | 11 ± 2 | 
1.5e+07 ± 1e+06 | Ac-SQETFDFLWKSL [p53TADBilateria ^AltAll] | 2.6 ± 0.3 | 
 | Ac-SQETFEYLWNTL [p53TAD M. trossulus] |  | K D ([1]; MDM2 H. sapiens, KD = koff/kon, Trp fluorescence ex 280 nm/em 330 ± 25 nm, 20 mM sodium phosphate pH 7.4, 150 mM NaCl, 1 mM TCEP, propagated error, 12-mers show non-native high affinity): high affinity
 | Ac-EGPTFEHLWSTL [p73TAD D. rerio] |  | Kd [2]: 0.12 ± 0.01 µM; kon ([2]; stopped-flow, 10°C): 3.2e+07 ± 1e+06 M⁻¹ s⁻¹; koff ([2]; MDM2 D. rerio, 10°C): 3.7 ± 0.06 s⁻¹
 | Ac-SQETFSDLWNML [p53TADFishes/Tetrapods ^ML] |  | kon ([2]; stopped-flow, 10°C): 2.46e+07 ± 800000 M⁻¹ s⁻¹; koff ([2]; MDM2 D. rerio, 10°C): 2.3 ± 0.2 s⁻¹
 | GPMGMSDEPTLSQLSFSQELSSSWQLMIDEITQGKFNTNEDEGTAIYSYSEQNPDDRYLMRPNEPQYISAGYPDGQVGQLPREFAVNQIPSPRTFSDNVSSSADKAREAYYGQAVNGVSAETSPPLKRDP [full-length p53TAD, residues 1–126 of T. adhaerens p53] |  | K D [4]: did not show binding; K D ([4]; listed as full‐length p53TAD): failed to displace; K D ([4]; listed as full‐length p53TAD from T. adhaerens): no binding
1.67e+07 ± 900000 | Ac-SQETFNHLWNML [p53TAD1R ^ML] | 1.37 ± 0.06 | 
